Like-named read-outs stand apart in the source and are kept apart here. Some results are limits rather than exact numbers.

In general, IC50 refers to the point on the concentration scale where inhibition reaches its midpoint. Usually melting point stands for the temperature of the solid-liquid transition. A word on the viability: it is the share of living cells, or the viability signal relative to a control. In general, EC50 refers to the concentration giving half of the maximal effect. Higher therefore signals weaker potency. As usually defined, the inhibition is the share of the control response that was lost under treatment.

Data set [1] has as its system Haspin. Also noted: method as in PMID 23071153, PMID 23071152, PMID 21804608, PMID 19734450, PMID 18978305. The conditions noted are these: Figure 1, known Haspin inhibitors; cited from earlier work.
Data set [2] addresses T1, HsHaspin (Homo sapiens, UniProt Q8TF76).
T1 construct: aa470-798; made in house; host or cells: E. coli
T1 sequence (Q8TF76 470-798): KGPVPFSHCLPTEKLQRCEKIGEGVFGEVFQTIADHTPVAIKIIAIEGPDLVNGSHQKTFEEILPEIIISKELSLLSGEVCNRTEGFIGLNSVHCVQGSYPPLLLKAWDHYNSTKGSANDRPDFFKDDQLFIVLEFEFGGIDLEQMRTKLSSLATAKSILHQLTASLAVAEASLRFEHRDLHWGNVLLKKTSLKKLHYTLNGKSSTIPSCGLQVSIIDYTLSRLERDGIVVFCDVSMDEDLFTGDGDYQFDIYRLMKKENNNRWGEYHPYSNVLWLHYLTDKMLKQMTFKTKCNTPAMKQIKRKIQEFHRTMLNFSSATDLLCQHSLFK
Kind of data set: Recombinant Haspin kinase assay ([γ-33P]ATP, 15 µM ATP; some values ADP-Glo). The format is biochemical. The conditions noted are these: for IC50 / Haspin inhibitory activity (in words): recombinant HsHaspin; for IC50: in vitro. On the procedure: (§1) Values are IC50 expressed in µM and calculated from dose–response curves (each point on the curves was performed in triplicate). Selectivity indexes (SI; in brackets) are calculated as follows: SI = IC50 kinase X/IC50 Haspin. ND: not determined. *IC50 values obtained using the ADP-Glo methodology (see Experimental section, Supplementary Material). […]
(§2) A, HsCdk9/Cyclin T). Native SscCK1δ /ε and SscGSK3α/β were purified from pig brain whereas HsPlk1, HsCdk1 and HsAurora B were purchased from ProQinase and SignalChem respectively. Kinase assays were performed in […]
(§3) mCi/ml; PerkinElmer) in a final volume of 30 µl as previously reported 51. After 30 min incubation at 30°C, the reaction mix was spotted onto GE healthcare P81 phosphocellulose paper using a FilterMate Harvester (PerkinElmer), and the filter was extensively washed with a 1% phosphoric acid solution. The wet filter-bound radioactivity was determined in the presence of 20 µl scintillation fluid (GE healthcare) with a TopCount® Scintillation and Luminescence Counter (PerkinElmer). IC50 values were calculated from dose-response curves […]
(§4) Kinase activities using the ADP-Glo methodology (ADP-Glo Kinase Assay; Promega) were assayed according to the assay described in Nguyen et al. 52 and Ibrahim et al. 53. […]
Background: ADP-Glo first removes unused ATP, then detects ADP through luciferase.

Data set [3] deals with HBL100 spheroids. Kind of data set: Spheroid (3D) viability, CellTiter-Glo. The format is cell-based, human. Particulars: Figure 4(A). On the technique in general: In ATP-based viability assays light output follows the ATP content of the culture.
For data set [4], the target named is T2, HsCDK1 (Homo sapiens, UniProt P06493).
T2 construct: purchased ProQinase
Kind of data set: CDK1 kinase assay. The format is biochemical. Particulars: for SI CDK1/Haspin: SI = IC50 CDK1/IC50 Haspin; for IC50: Table 4, read-out: IC50 HsCDK1. Here is the method:
We therefore tested our compounds on two obvious candidates, HsCDK1 and HsPLK1 (Polo-like_kinase 1) both required for mitotic entry[50]
(§5) Values are IC50 expressed in µM and calculated from dose–response curves (each point from the curves was performed in duplicate). NR: not relevant. […]
(§6) Recombinant protein kinases were expressed and purified from E. coli (HsHaspin kinase domain aa470-798, HsCdk5/p25, RnDYRK1A kinase domain aa1-499, HsPIM1, MmCLK1) or baculovirus/Sf9 cells (HsCdk2/Cyclin A, HsCdk9/Cyclin T). Native SscCK1δ /ε and SscGSK3α/β were purified from pig brain whereas HsPlk1, HsCdk1 and HsAurora B were purchased from ProQinase and SignalChem respectively. Kinase assays were performed in specific buffers and substrates for each kinase tested in the presence of 15 µM [γ-33P] ATP (3,000 Ci/mmol, 10 mCi/ml; PerkinElmer) in a final volume of 30 µl as previously reported 51. After 30 min incubation at 30°C, the reaction mix was spotted onto GE healthcare P81 phosphocellulose paper using a FilterMate Harvester (PerkinElmer), and the filter was extensively washed with a 1% phosphoric acid solution. The wet filter-bound radioactivity was determined in the presence of 20 µl scintillation fluid (GE healthcare) with a TopCount® Scintillation and Luminescence Counter (PerkinElmer). IC50 values were calculated from dose-response curves

Data set [5] deals with T3, HsPLK1 (Homo sapiens, UniProt P53350).
T3 construct: purchased ProQinase
Kind of data set: PLK1 kinase assay. Particulars: Table 4. The format is biochemical. Here is the method: . We therefore tested our compounds on two obvious candidates, HsCDK1 and HsPLK1 (Polo-like_kinase 1) both required for mitotic entry[50] (Table 4).
as §5, §6

Data set [6] deals with HCT116 spheroids. Kind of data set: Spheroid (3D) viability, CellTiter-Glo. The format is cell-based, human. The conditions noted are these: 5 µM, 10 days, Figure 4(A).
The test system of data set [7] is U-2 OS spheroids. Kind of data set: Spheroid (3D) viability, CellTiter-Glo. The format is cell-based, human. The conditions noted are these: 5 µM; for viability at 5 µM: Homo sapiens, U2OS.
Data set [8] relates to RPE-1. Kind of data set: Cell viability, monolayer (2D), MTS assay. The format is cell-based. Particulars: Homo sapiens, 48 h. For orientation: Tetrazolium dyes change colour on reduction, which living cells bring about.
For data set [9], the system named is Haspin activity (H3T3ph) in U-2 OS cells. Kind of data set: In-cell Haspin activity, H3T3ph immunofluorescence. The format is cell-based, human. Particulars: 24 h; for H3T3ph signal remaining in prometaphase cells (% of ctrl): 0.5 µM.
Data set [10] concerns HCT116. Kind of data set: Cell viability, monolayer (2D), MTS assay. The format is cell-based. Particulars: Homo sapiens, HCT-116, 48 h.
Data set [11] relates to U-2 OS. Kind of data set: Cell viability, monolayer (2D), MTS assay. The format is cell-based. Particulars: Homo sapiens, U2OS, 48 h.
For data set [12], the system named is HBL100. Kind of data set: Cell viability, monolayer (2D), MTS assay. The format is cell-based. Particulars: Homo sapiens, HBL-100, 48 h.
The subject of data set [13] is SH-SY5Y. Kind of data set: Cell viability, monolayer (2D), MTS assay. The conditions noted are these: Homo sapiens, 48 h. The format is cell-based.
Data set [14] has as its target T4, HsAurora B (Homo sapiens, UniProt Q96GD4).
T4 construct: purchased SignalChem
Kind of data set: Aurora B kinase assay. The format is biochemical. On the procedure: as §1
as §6, with “curves […]” for “curves”
as §4

The test system of data set [15] is U-2 OS cells. Kind of data set: Scratch wound cell migration assay (IncuCyte). The format is cell-based, human. The conditions noted are these: 0.6 µM, 0.5% FBS, normalised against DMSO control (100%).
In data set [16] the test system is U-2 OS cells. Kind of data set: Cell cycle analysis by flow cytometry (propidium iodide). Particulars: 2.5 µM, 24 h, U-2 OS.
The target in data set [17] is T5, HsCdk2/Cyclin A (Homo sapiens, UniProt P24941).
T5 construct: made in house; host or cells: baculovirus/Sf9 cells
Kind of data set: CDK2 kinase assay. The format is biochemical. The conditions noted are these: read-out: IC50 CDK2. Here is the method:
as §1, §2, §3, §4

Regarding `Nc1ncnc2c1c(I)cn2[C@@H]1O[C@H](CO)[C@@H](O)[C@H]1O` [5-Iodotubercidine], the IC50 in data set [1] was […].

T4 sequence (Q96GD4 whole entry): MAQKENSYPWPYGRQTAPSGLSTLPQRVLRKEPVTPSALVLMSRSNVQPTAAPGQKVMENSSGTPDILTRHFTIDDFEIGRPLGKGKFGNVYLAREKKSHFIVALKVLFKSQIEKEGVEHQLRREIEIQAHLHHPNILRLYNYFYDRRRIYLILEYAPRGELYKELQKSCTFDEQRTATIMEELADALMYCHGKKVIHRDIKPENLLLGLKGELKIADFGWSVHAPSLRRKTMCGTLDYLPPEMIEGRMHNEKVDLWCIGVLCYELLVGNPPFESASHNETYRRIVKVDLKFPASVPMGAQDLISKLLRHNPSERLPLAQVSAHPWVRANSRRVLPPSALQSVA
T3 sequence (P53350 whole entry): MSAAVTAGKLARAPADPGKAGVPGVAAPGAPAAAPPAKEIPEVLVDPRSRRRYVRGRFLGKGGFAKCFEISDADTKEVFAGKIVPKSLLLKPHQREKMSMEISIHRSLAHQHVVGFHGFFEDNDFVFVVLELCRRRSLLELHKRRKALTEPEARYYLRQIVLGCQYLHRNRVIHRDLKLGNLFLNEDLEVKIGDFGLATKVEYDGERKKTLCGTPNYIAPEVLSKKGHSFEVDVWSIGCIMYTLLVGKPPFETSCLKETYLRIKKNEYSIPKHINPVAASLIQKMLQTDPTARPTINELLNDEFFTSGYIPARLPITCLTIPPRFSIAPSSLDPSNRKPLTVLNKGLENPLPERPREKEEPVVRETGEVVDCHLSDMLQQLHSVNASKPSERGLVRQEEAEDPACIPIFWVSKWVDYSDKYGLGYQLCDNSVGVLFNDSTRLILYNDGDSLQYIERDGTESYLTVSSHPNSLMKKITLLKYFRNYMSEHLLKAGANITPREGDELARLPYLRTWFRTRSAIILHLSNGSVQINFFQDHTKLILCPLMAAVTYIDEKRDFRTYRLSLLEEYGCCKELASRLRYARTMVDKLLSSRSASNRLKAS
T2 sequence (P06493 whole entry): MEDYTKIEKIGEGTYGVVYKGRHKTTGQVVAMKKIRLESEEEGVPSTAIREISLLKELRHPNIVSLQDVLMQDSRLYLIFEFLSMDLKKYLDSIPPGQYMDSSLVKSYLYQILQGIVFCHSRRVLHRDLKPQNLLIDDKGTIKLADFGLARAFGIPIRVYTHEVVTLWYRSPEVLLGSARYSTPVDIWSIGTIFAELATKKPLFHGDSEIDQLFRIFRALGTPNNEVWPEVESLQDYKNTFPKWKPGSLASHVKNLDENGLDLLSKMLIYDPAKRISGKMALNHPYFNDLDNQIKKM
T2 sequence (P14635 whole entry partner): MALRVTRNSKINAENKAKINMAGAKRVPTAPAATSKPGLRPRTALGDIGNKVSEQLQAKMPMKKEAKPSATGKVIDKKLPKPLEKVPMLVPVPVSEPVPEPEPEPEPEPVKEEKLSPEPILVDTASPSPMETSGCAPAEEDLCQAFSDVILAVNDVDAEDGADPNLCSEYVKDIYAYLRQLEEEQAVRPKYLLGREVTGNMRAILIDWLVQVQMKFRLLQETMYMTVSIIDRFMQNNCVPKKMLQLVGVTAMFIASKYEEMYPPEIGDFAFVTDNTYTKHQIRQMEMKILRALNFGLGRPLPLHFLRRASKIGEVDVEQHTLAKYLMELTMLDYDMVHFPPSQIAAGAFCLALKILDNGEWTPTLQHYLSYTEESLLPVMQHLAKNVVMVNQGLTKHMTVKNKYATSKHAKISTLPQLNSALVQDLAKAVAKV

Turning to `c1cc2[nH]ncc2cc1-c1cnc2ccc(NC3CCCC3)nn12` [Compound 9], the melting point was 195 to 197 °C. The IC50 in data set [2] worked out at 31 nM.

The molecule `c1cc2[nH]ncc2cc1-c1cnc2ccc(NC3CCCCC3)nn12` [Compound 10] gave a melting point of 240 to 242 °C.

Molecule `c1cc2[nH]ncc2cc1-c1cnc2ccc(N3CCCCC3)nn12` [Compound 11] displayed a melting point of 231 to 233 °C.

The molecule `CCCOc1ccc2ncc(-c3ccc4[nH]ncc4c3)n2n1` [Compound 13] displayed a melting point of 198 to 200 °C.

As for `CCOc1ccc2ncc(-c3ccc4[nH]ncc4c3)n2n1` [Compound 14], the melting point is 205 to 207 °C. Moreover, the HBL100 spheroid viability result in [3] (5 µM, 10 days) was “remained mostly unresponsive”. Moreover, in data set [3] (Homo sapiens, HBL-100, 48 h, read-out: HBL-100 spheroid viability (% of DMSO control)), the viability at 5 µM came to 73%. Also, in [4], the “SI CDK1/Haspin” value is recorded as 11.5 and the IC50 turned out to be 795 nM. This molecule had an IC50 in data set [5] above 10000 nM. In [6], the HCT116 spheroid viability result is given as “remained mostly unresponsive”. Further, in data set [7] (48 h, 2 days, Figure 4(B), read-out: U-2 OS spheroid remaining viability), the viability at 5 µM came to 6.9%. The viability at 5 µM in data set [7] (240 h, 10 days, Figure 4(A), read-out: U-2 OS spheroid viability (% of DMSO control)) turned out to be 5%. Also, in data set [7] (48 h, Figure 4(A), read-out: U-2 OS spheroid viability (% of DMSO control)), the viability at 5 µM turned out to be 33%. Moreover, the EC50 in data set [8] worked out at 3700 nM. Moreover, the “H3T3ph signal remaining in prometaphase cells (% of ctrl)” value in [9] is given as 11.9%. In addition, the EC50 in data set [10] came to 1700 nM. This molecule also gave an EC50 in data set [11] of 2800 nM. The same molecule had an EC50 in data set [12] of 9500 nM. For the same molecule, in data set [13], the EC50 is above 10000 nM. For the same molecule, in data set [2] (average selectivity index over the protein kinases tested vs Haspin), the “average SI” value is listed as 23.6. In addition, the IC50 in data set [2] amounted to 69 nM. Besides, in data set [14], the “Aurora B inhibition (in words)” value is on record as “did not inhibit Aurora B kinase”. In [15], the “normalised wound closure after 24 h” value is listed as 73%. The “cells in G2/M phase (% of cell total population)” value in data set [16] (DMSO control 12.8%) amounted to 24.4%. The “cells in S phase (% of cell total population)” value in [16] (DMSO control 51.9%) came out at 45.2%.

`c1cc2[nH]ncc2cc1-c1cnc2ccc(OC[C@H]3CNCCO3)nn12` [Compound 22]: in data set [4], the “SI CDK1/Haspin” value is recorded as 239. Further, the IC50 in [4] is 2870 nM; in data set [5] it was above 10000 nM; in [17] it was 5300 nM; in data set [2] it was 12 nM. Also, the “U-2 OS spheroid remaining viability” value in data set [7] (2 days, Figure 4(B)) was “no effects”. The EC50 in data set [8] is 6000 nM; in data set [10], above 10000 nM; in data set [11] it was 8600 nM; in [12] it was above 10000 nM; in [13], above 10000 nM. In addition, the “H3T3ph signal remaining in prometaphase cells (% of ctrl)” value in data set [9] is reported as 10.7%. The inhibition at 0.05 µM in data set [9] (Homo sapiens, U2OS, 0.05 µM, read-out: inhibition of cellular Haspin activity) was above 80%. Further, the “normalised wound closure after 24 h” value in data set [15] was “around 100%”.

As for `c1cc2[nH]ncc2cc1-c1cnc2ccc(OC[C@@H]3COCCN3)nn12` [Compound 23], in data set [2], the IC50 stood at 25 nM.

As for `c1cc2[nH]ncc2cc1-c1cnc2ccc(OC[C@H]3COCCN3)nn12` [Compound 24], the IC50 in [2] came out at 20 nM.

Consider `c1cc2[nH]ncc2cc1-c1cnc2ccc(OCC3CCCN3)nn12` (stereo not shown) [Compound 25], for which the “Haspin inhibitory activity (in words)” value in [2] was “very active”.

Turning to `c1cc2[nH]ncc2cc1-c1cnc2ccc(OCC3CCCN3)nn12` (stereo not shown) [Compound 26], the “Haspin inhibitory activity (in words)” value in [2] was “very active”.

Take `CCCNc1ccc2ncc(-c3cnc(N)nc3)n2n1` [Compound 28, 3-(2-Aminopyrimidin-5-yl)-6-(propylamino)imidazo[1,2-b]pyridazine]: the “Aurora B inhibition at 10 µM (in words)” value in [14] is reported as “did not affect this enzyme at 10 µM”.

For `CCCNc1ccc2ncc(-c3cccc4ccccc34)n2n1` [Compound 29, 3-(Naphthalen-1-yl)-N-propylimidazo[1,2-b]pyridazin-6-amine], the IC50 in data set [4] and in data set [5] was above 10000 nM throughout. Moreover, the EC50 in [8], in data set [10], in data set [11], in data set [12] and in [13] was above 10000 nM throughout. The “normalised wound closure after 24 h” value in data set [15] is recorded as “around 100%”.

With `c1cnn2c(-c3ccc4[nH]ncc4c3)cnc2c1` [Compound 30, 3-(1H-Indazol-5-yl)imidazo[1,2-b]pyridazine], the “Haspin inhibitory activity (in words)” value in [2] is recorded as “lost their activity for Haspin”. The “Aurora B inhibition at 10 µM (in words)” value in [14] was “did not affect this enzyme at 10 µM”.

`COc1ccc2c(c1)[nH]c1c(C)nccc12` [Harmine]: the IC50 in data set [1] was 590 nM.

Consider `COc1ccc2nc3ccc(OC)cc3c(SCCCN)c2c1` [LDN-192960], for which the IC50 in [1] was […].

For `COc1ccc2c3ccnc(C(F)(F)F)c3n(CCCCN)c2c1` [LDN-211898], the IC50 in data set [1] was 100 nM.

Take `CN1CCC(CNc2ccc3ncc(-c4cccc(OC(F)(F)F)c4)n3n2)CC1` [SGI-1776]: the IC50 in data set [1] is 34 nM.

The values are drawn from PMC7580722, “Design of new disubstituted imidazo[1,2-b]pyridazine derivatives as selective Haspin inhibitors. Synthesis, binding mode and anticancer biological evaluation” (Journal of Enzyme Inhibition and Medicinal Chemistry, 2020).
